From PMC7872314, “Modeling Bioavailable Concentrations in Zebrafish Cell Lines and Embryos Increases the Correlation of Toxicity Potencies across Test Systems” (Environmental Science & Technology, 2020)
Like-named read-outs stand apart in the source and are kept apart here.

How the values were obtained:
[1] = tested on: ZF4 (fibroblasts) cell line; experiment: MTS assay (MTS/BCA multiplex), NAD(P)H metabolism; type: cell-based, zebrafish (Danio rerio); details: Danio rerio, Fibroblast
[2] = tested on: ZFL (hepatocytes) cell line; experiment: cells; type: cell-based, zebrafish (Danio rerio); details: Danio rerio, Hepatocyte
[3] = tested on: ZF4 (fibroblasts) cell line; experiment: BCA assay (MTS/BCA multiplex), protein amount; type: cell-based, zebrafish (Danio rerio); details: Danio rerio, Fibroblast
[4] = tested on: ZFL (hepatocytes) cell line; experiment: cells; type: cell-based, zebrafish (Danio rerio); details: Danio rerio, Hepatocyte; remark: listed apart in the source
[5] = tested on: ZF4 (fibroblasts) cell line; experiment: ATP assay (ATP/LDH multiplex), ATP metabolism; type: cell-based, zebrafish (Danio rerio); details: Danio rerio, Fibroblast
[6] = tested on: ZFL (hepatocytes) cell line; experiment: cells; type: cell-based, zebrafish (Danio rerio); details: Danio rerio, Hepatocyte; remark: listed apart in the source
[7] = tested on: ZF4 (fibroblasts) cell line; experiment: alamarBlue (AB) endpoint of AB/CFDA/NR multiplex, cellular respiration; type: cell-based, zebrafish (Danio rerio); details: Danio rerio, Fibroblast
[8] = tested on: ZFL (hepatocytes) cell line; experiment: cells; type: cell-based, zebrafish (Danio rerio); details: Danio rerio, Hepatocyte; remark: listed apart in the source
[9] = tested on: ZF4 (fibroblasts) cell line; experiment: CFDA endpoint of AB/CFDA/NR multiplex, membrane stability; type: cell-based, zebrafish (Danio rerio); details: Danio rerio, Fibroblast
[10] = tested on: ZFL (hepatocytes) cell line; experiment: cells; type: cell-based, zebrafish (Danio rerio); details: Danio rerio, Hepatocyte; remark: listed apart in the source
[11] = tested on: ZF4 (fibroblasts) cell line; experiment: Neutral red, absorbance (NRa), AB/CFDA/NR multiplex, lysosome stability; type: cell-based, zebrafish (Danio rerio); details: Danio rerio, Fibroblast
[12] = tested on: ZFL (hepatocytes) cell line; experiment: cells; type: cell-based, zebrafish (Danio rerio); details: Danio rerio, Hepatocyte; remark: listed apart in the source
[13] = tested on: ZF4 (fibroblasts) cell line; experiment: Neutral red, fluorescence (NRf), AB/CFDA/NR multiplex, lysosome stability; type: cell-based, zebrafish (Danio rerio); details: Danio rerio, Fibroblast
[14] = tested on: ZFL (hepatocytes) cell line; experiment: cells; type: cell-based, zebrafish (Danio rerio); details: Danio rerio, Hepatocyte; remark: listed apart in the source
zebrafish embryos [15] = experiment: animal or person; type: in vivo, zebrafish (Danio rerio); details: for EC50: Danio rerio
ZF4 and ZFL cell lines = experiment: Cytotoxicity assays, all endpoints, both cell lines (mean/range); type: cell-based, zebrafish (Danio rerio); details: 48 h, mean of all cytotoxicity endpoints (without LDH) in ZF4 and ZFL
[16] = tested on: zebrafish cell lines vs zebrafish embryo; experiment: Potency ratios IC50;x/EC50;x (cytotoxicity assays vs mFET); parameters: species or system zebrafish (Danio rerio)
zebrafish embryos [17] = tested on: zebrafish embryos; parameters: method as in earlier work; details: nominal, cited from earlier work
[18] = tested on: diverse mammalian cell assay results; parameters: method as in https://comptox.epa.gov/dashboard/; details: COMPTOX; ref https://comptox.epa.gov/dashboard/; read-out: median AC50; cited from earlier work
[19] = ref Comptox, PubChem or DrugBank; cited from earlier work

COC(=O)Nc1nc2ccc(Sc3ccccc3)cc2[nH]1 [Fenbendazole, fenbendazole]
IC50 ([1]; MTS - ZF4, log10 of IC50, read-out: LogIC50 (converted)): 5840 nM | IC50 ([1]; MTS - ZF4, read-out: IC50): 5840 nM | IC50 ([1]; ZF4, 48 h exposure, nominal, log10, read-out: logIC50 (log10 IC50;nom) MTS (converted)): 5890 nM | IC50 ([1]; ZF4, 48 h exposure, nominal, read-out: IC50;nom MTS): 5840 nM | IC50 ([2]; MTS - ZFL, log10 of IC50, read-out: LogIC50 (converted)): 166 nM | IC50 ([2]; MTS - ZFL, read-out: IC50): 166 nM | IC50 ([2]; ZFL, 48 h exposure, nominal, log10, read-out: logIC50 (log10 IC50;nom) MTS (converted)): 166 nM | IC50 ([2]; ZFL, 48 h exposure, nominal, read-out: IC50;nom MTS): 166 nM | IC50 ([3]; BCA - ZF4, log10 of IC50, read-out: LogIC50 (converted)): 1150 nM | IC50 ([3]; BCA - ZF4, read-out: IC50): 1150 nM | IC50 ([3]; ZF4, 48 h exposure, nominal, log10, read-out: logIC50 (log10 IC50;nom) BCA (converted)): 1150 nM | IC50 ([3]; ZF4, 48 h exposure, nominal, read-out: IC50;nom BCA): 1150 nM | IC50 ([4]; BCA - ZFL, log10 of IC50, read-out: LogIC50 (converted)): 125 nM | IC50 ([4]; BCA - ZFL, read-out: IC50): 125 nM | IC50 ([4]; ZFL, 48 h exposure, nominal, log10, read-out: logIC50 (log10 IC50;nom) BCA (converted)): 126 nM | IC50 ([4]; ZFL, 48 h exposure, nominal, read-out: IC50;nom BCA): 125 nM | IC50 ([5]; ATP - ZF4, log10 of IC50, read-out: LogIC50 (converted)): 7490 nM | IC50 ([5]; ATP - ZF4, read-out: IC50): 7490 nM | IC50 ([5]; ZF4, 48 h exposure, nominal, log10, read-out: logIC50 (log10 IC50;nom) ATP (converted)): 7410 nM | IC50 ([5]; ZF4, 48 h exposure, nominal, read-out: IC50;nom ATP): 7490 nM | IC50 ([6]; ATP - ZFL, log10 of IC50, read-out: LogIC50 (converted)): 9850 nM | IC50 ([6]; ATP - ZFL, read-out: IC50): 9850 nM | IC50 ([6]; ZFL, 48 h exposure, nominal, log10, read-out: logIC50 (log10 IC50;nom) ATP (converted)): 9770 nM | IC50 ([6]; ZFL, 48 h exposure, nominal, read-out: IC50;nom ATP): 9850 nM | IC50 ([7]; AB - ZF4, log10 of IC50, read-out: LogIC50 (converted)): 3570 nM | IC50 ([7]; AB - ZF4, read-out: IC50): 3570 nM | IC50 ([7]; ZF4, 48 h exposure, nominal, log10, read-out: logIC50 (log10 IC50;nom) AB (converted)): 3550 nM | IC50 ([7]; ZF4, 48 h exposure, nominal, read-out: IC50;nom AB): 3570 nM | IC50 ([8]; AB - ZFL, log10 of IC50, read-out: LogIC50 (converted)): 985 nM | IC50 ([8]; AB - ZFL, read-out: IC50): 985 nM | IC50 ([8]; ZFL, 48 h exposure, nominal, log10, read-out: logIC50 (log10 IC50;nom) AB (converted)): 977 nM | IC50 ([8]; ZFL, 48 h exposure, nominal, read-out: IC50;nom AB): 985 nM | IC50 ([9]; CFDA - ZF4, log10 of IC50, read-out: LogIC50 (converted)): 49500 nM | IC50 ([9]; CFDA - ZF4, read-out: IC50): 49500 nM | IC50 ([9]; ZF4, 48 h exposure, nominal, log10, read-out: logIC50 (log10 IC50;nom) CFDA (converted)): 49000 nM | IC50 ([9]; ZF4, 48 h exposure, nominal, read-out: IC50;nom CFDA): 49500 nM | IC50 ([10]; CFDA - ZFL, log10 of IC50, read-out: LogIC50 (converted)): 21400 nM | IC50 ([10]; CFDA - ZFL, read-out: IC50): 21400 nM | IC50 ([10]; ZFL, 48 h exposure, nominal, log10, read-out: logIC50 (log10 IC50;nom) CFDA (converted)): 21400 nM | IC50 ([10]; ZFL, 48 h exposure, nominal, read-out: IC50;nom CFDA): 21400 nM | IC50 ([11]; NR-abs - ZF4, log10 of IC50, read-out: LogIC50 (converted)): 1550 nM | IC50 ([11]; NR-abs - ZF4, read-out: IC50): 1550 nM | IC50 ([11]; ZF4, 48 h exposure, nominal, log10, read-out: logIC50 (log10 IC50;nom) NRa (converted)): 1550 nM | IC50 ([11]; ZF4, 48 h exposure, nominal, read-out: IC50;nom NRa): 1550 nM | IC50 ([11]; ZF4 cell line, NRa endpoint, nominal, read-out: IC50;nom): 0.46 µg/mL | IC50 ([12]; NR-abs - ZFL, log10 of IC50, read-out: LogIC50 (converted)): 532 nM | IC50 ([12]; NR-abs - ZFL, read-out: IC50): 532 nM | IC50 ([12]; ZFL, 48 h exposure, nominal, log10, read-out: logIC50 (log10 IC50;nom) NRa (converted)): 537 nM | IC50 ([12]; ZFL, 48 h exposure, nominal, read-out: IC50;nom NRa): 532 nM | IC50 ([13]; NR-fluo - ZF4, log10 of IC50, read-out: LogIC50 (converted)): 10400 nM | IC50 ([13]; NR-fluo - ZF4, read-out: IC50): 10400 nM | IC50 ([13]; ZF4, 48 h exposure, nominal, log10, read-out: logIC50 (log10 IC50;nom) NRf (converted)): 10500 nM | IC50 ([13]; ZF4, 48 h exposure, nominal, read-out: IC50;nom NRf): 10400 nM | IC50 ([14]; NR-fluo - ZFL, log10 of IC50, read-out: LogIC50 (converted)): 584 nM | IC50 ([14]; NR-fluo - ZFL, read-out: IC50): 584 nM | IC50 ([14]; ZFL, 48 h exposure, nominal, log10, read-out: logIC50 (log10 IC50;nom) NRf (converted)): 589 nM | IC50 ([14]; ZFL, 48 h exposure, nominal, read-out: IC50;nom NRf): 584 nM | difference in toxicity (EC50;nom) between 48 hpf and 144 hpf (zebrafish embryos [15]; 48 hpf time point less sensitive than 144 hpf): approximately the same | log EC50;nom (mFET) (zebrafish embryos [15]; 48 hpf, nominal, log10, listed as Fen): -7.115 M | EC50 (zebrafish embryos [15]; 48 hpf, nominal, log10, read-out: log EC50;nom (mFET) (converted)): 77.6 nM | EC50 (zebrafish embryos [15]; 48 hpf, nominal, read-out: EC50;nom (embryo)): 0.02 µg/mL | EC50 (zebrafish embryos [15]; read-out: EC50 48hpf): 76.8 nM | EC50 (zebrafish embryos [15]; read-out: EC50;nom (mFET)): 76.8 nM | IC50 (ZF4 and ZFL cell lines; Danio rerio, log10, read-out: Mean log IC50nom (converted)): 2400 nM | Mean log IC50nom (ZF4 and ZFL cell lines; log10, listed as Fen): -5.623 M | potency ratio IC50;nom/EC50;nom (median) ([16]; median over cytotoxicity endpoints, nominal, 48 h cells / 48 hpf mFET): 33.3 | difference in sensitivity between embryo (EC50;nom) and cells (IC50;nom) ([16]; nominal concentrations, higher potency in the mFET): two to three log-scales more sensitive in the mFET | EC50 (zebrafish embryos [17]; 144 hpf, converted): 80.2 nM | logEC50 144 hpf (zebrafish embryos [17]; log10): -7.0959 M | AC50 [18]: 900 nM | BCF [19]: 1.18E+03 | Physiological charge [19]: 0 | Water Solubility [19]: insoluble | logKoa [19]: 9.49 | logKow [19]: 3.21 | pKa (Strongest Acidic) [19]: 9.59 | pKa (Strongest Basic) [19]: 4.06 | w_solubility (water solubility) [19]: 26.7 µM
